# Reference: patent publication US20230123334A1, “AMINO LIPID COMPOUND, PREPARATION METHOD THEREFOR, AND APPLICATION THEREOF” (SHENZHEN SHENXIN BIOTECHNOLOGY CO., LTD., priority 2020, published 2023)
# System: HEK293 cells
# Assay: Preliminary screening as mRNA vectors, EGFP mRNA transfection of HEK293 cells
# Assay type: cell-based
# Conditions: EGFP mRNA 50 ng per well, 96-well plates; percentage of GFP fluorescent cells relative to total number of cells (Hoechst)
# How it was run: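 HEK293 cells in DMEM plus 10% FBS transfected in 96-well format with 50 ng EGFP mRNA per well; Lipofectamine2000 served as positive control. Read-out is the percentage of GFP-fluorescent cells among total cells, counted by Hoechst nuclear stain.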
row,Compound,Absolute mRNA transfection efficiency in HEK293 cells
1,CCCCCCCCCCCCN(CCCCCCCCCCCC)c1nc(NCCN2CCN(C)CC2)nc(SCCCCCCCCC)n1 [D5S9^2N12],0.4%
2,CCCCCCCCCCCCN(CCCCCCCCCCCC)c1nc(NCCN2CCN(C)CC2)nc(SCCCCCCCCCC)n1 [D5S10^2N12],0.1%
3,CCCCCCCCCCCCN(CCCCCCCCCCCC)c1nc(NCCN2CCN(C)CC2)nc(SCCCCCCCCCCC)n1 [D5S11^2N12],0.6%
4,CCCCCCCCCCCCSc1nc(NCCN2CCN(C)CC2)nc(N(CCCCCCCCCCCC)CCCCCCCCCCCC)n1 [D5S12^2N12],1.6%
5,CCCCCCCCCCCCCCSc1nc(NCCN2CCN(C)CC2)nc(N(CCCCCCCCCCCC)CCCCCCCCCCCC)n1 [D5S14^2N12],0.9%
6,CCCCCCCCCCCCCCCSc1nc(NCCN2CCN(C)CC2)nc(N(CCCCCCCCCCCC)CCCCCCCCCCCC)n1 [D5S15^2N12],0.9%
7,CCCCCCCCCCCCCCCCSc1nc(NCCN2CCN(C)CC2)nc(N(CCCCCCCCCCCC)CCCCCCCCCCCC)n1 [D5S16^2N12],0.1%
8,CCCCCCCCCCCCCCCCCCSc1nc(NCCN2CCN(C)CC2)nc(N(CCCCCCCCCCCC)CCCCCCCCCCCC)n1 [D5S18^2N12],0.0%
9,CCCCCCCCCCCCN(CCCCCCCCCCCC)c1nc(NCCCN(C)C)nc(SCCCCCC)n1 [D6S6^2N12],0.0%
10,CCCCCCCCCCCCN(CCCCCCCCCCCC)c1nc(NCCCN(C)C)nc(SCCCCCCC)n1 [D6S7^2N12],0.9%
11,CCCCCCCCCCCCN(CCCCCCCCCCCC)c1nc(NCCCN(C)C)nc(SCCCCCCCC)n1 [D6S8^2N12],1.5%
12,CCCCCCCCCCCCN(CCCCCCCCCCCC)c1nc(NCCCN(C)C)nc(SCCCCCCCCC)n1 [D6S9^2N12],1.7%
13,CCCCCCCCCCCCN(CCCCCCCCCCCC)c1nc(NCCCN(C)C)nc(SCCCCCCCCCC)n1 [D6S10^2N12],0.1%
14,CCCCCCCCCCCCN(CCCCCCCCCCCC)c1nc(NCCCN(C)C)nc(SCCCCCCCCCCC)n1 [D6S11^2N12],3.2%
15,CCCCCCCCCCCCSc1nc(NCCCN(C)C)nc(N(CCCCCCCCCCCC)CCCCCCCCCCCC)n1 [D6S12^2N12],2.4%
16,CCCCCCCCCCCCCCSc1nc(NCCCN(C)C)nc(N(CCCCCCCCCCCC)CCCCCCCCCCCC)n1 [D6S14^2N12],0.1%
17,CCCCCCCCCCCCCCCSc1nc(NCCCN(C)C)nc(N(CCCCCCCCCCCC)CCCCCCCCCCCC)n1 [D6S15^2N12],2.9%
18,CCCCCCCCCCCCCCCCSc1nc(NCCCN(C)C)nc(N(CCCCCCCCCCCC)CCCCCCCCCCCC)n1 [D6S16^2N12],1.0%
19,CCCCCCCCCCCCCCCCCCSc1nc(NCCCN(C)C)nc(N(CCCCCCCCCCCC)CCCCCCCCCCCC)n1 [D6S18^2N12],0.1%
20,CCCCCCCCCCCCN(CCCCCCCCCCCC)c1nc(NCCN(CC)CC)nc(SCCCCCC)n1 [D7S6^2N12],0.2%
21,CCCCCCCCCCCCN(CCCCCCCCCCCC)c1nc(NCCN(CC)CC)nc(SCCCCCCC)n1 [D7S7^2N12],1.2%

row,Compound,Absolute mRNA transfection efficiency in HEK293 cells
1,CCCCCCCCCCCCN(CCCCCCCCCCCC)c1nc(NCCN(CC)CC)nc(SCCCCCCCC)n1 [D7S8^2N12],1.3%
2,CCCCCCCCCCCCN(CCCCCCCCCCCC)c1nc(NCCN(CC)CC)nc(SCCCCCCCCC)n1 [D7S9^2N12],0.2%
3,CCCCCCCCCCCCN(CCCCCCCCCCCC)c1nc(NCCN(CC)CC)nc(SCCCCCCCCCC)n1 [D7S10^2N12],0.0%
4,CCCCCCCCCCCCN(CCCCCCCCCCCC)c1nc(NCCN(CC)CC)nc(SCCCCCCCCCCC)n1 [D7S11^2N12],0.7%
5,CCCCCCCCCCCCSc1nc(NCCN(CC)CC)nc(N(CCCCCCCCCCCC)CCCCCCCCCCCC)n1 [D7S12^2N12],1.9%
6,CCCCCCCCCCCCCCSc1nc(NCCN(CC)CC)nc(N(CCCCCCCCCCCC)CCCCCCCCCCCC)n1 [D7S14^2N12],0.1%
7,CCCCCCCCCCCCCCCSc1nc(NCCN(CC)CC)nc(N(CCCCCCCCCCCC)CCCCCCCCCCCC)n1 [D7S15^2N12],1.8%
8,CCCCCCCCCCCCCCCCSc1nc(NCCN(CC)CC)nc(N(CCCCCCCCCCCC)CCCCCCCCCCCC)n1 [D7S16^2N12],0.8%
9,CCCCCCCCCCCCCCCCCCSc1nc(NCCN(CC)CC)nc(N(CCCCCCCCCCCC)CCCCCCCCCCCC)n1 [D7S18^2N12],0.0%
10,CCCCCCCCCCCCN(CCCCCCCCCCCC)c1nc(NCCCN2CCOCC2)nc(SCCCCCC)n1 [D8S6^2N12],0.0%
11,CCCCCCCCCCCCN(CCCCCCCCCCCC)c1nc(NCCCN2CCOCC2)nc(SCCCCCCC)n1 [D8S7^2N12],0.6%
12,CCCCCCCCCCCCN(CCCCCCCCCCCC)c1nc(NCCCN2CCOCC2)nc(SCCCCCCCC)n1 [D8S8^2N12],0.1%
13,CCCCCCCCCCCCN(CCCCCCCCCCCC)c1nc(NCCCN2CCOCC2)nc(SCCCCCCCCC)n1 [D8S9^2N12],0.3%
14,CCCCCCCCCCCCN(CCCCCCCCCCCC)c1nc(NCCCN2CCOCC2)nc(SCCCCCCCCCC)n1 [D8S10^2N12],0.0%
15,CCCCCCCCCCCCN(CCCCCCCCCCCC)c1nc(NCCCN2CCOCC2)nc(SCCCCCCCCCCC)n1 [D8S11^2N12],0.4%
16,CCCCCCCCCCCCSc1nc(NCCCN2CCOCC2)nc(N(CCCCCCCCCCCC)CCCCCCCCCCCC)n1 [D8S12^2N12],3.4%
17,CCCCCCCCCCCCCCSc1nc(NCCCN2CCOCC2)nc(N(CCCCCCCCCCCC)CCCCCCCCCCCC)n1 [D8S14^2N12],0.1%
18,CCCCCCCCCCCCCCCSc1nc(NCCCN2CCOCC2)nc(N(CCCCCCCCCCCC)CCCCCCCCCCCC)n1 [D8S15^2N12],2.9%
19,CCCCCCCCCCCCCCCCSc1nc(NCCCN2CCOCC2)nc(N(CCCCCCCCCCCC)CCCCCCCCCCCC)n1 [D8S16^2N12],0.0%
20,CCCCCCCCCCCCCCCCCCSc1nc(NCCCN2CCOCC2)nc(N(CCCCCCCCCCCC)CCCCCCCCCCCC)n1 [D8S18^2N12],0.0%
21,CCCCCCCCCCCCN(CCCCCCCCCCCC)c1nc(NCCCN2CCN(C)CC2)nc(SCCCCCC)n1 [D9S6^2N12],0.1%

row,Compound,Absolute mRNA transfection efficiency in HEK293 cells
1,CCCCCCCCCCCCN(CCCCCCCCCCCC)c1nc(NCCCN2CCN(C)CC2)nc(SCCCCCCC)n1 [D9S7^2N12],1.0%
2,CCCCCCCCCCCCN(CCCCCCCCCCCC)c1nc(NCCCN2CCN(C)CC2)nc(SCCCCCCCC)n1 [D9S8^2N12],0.6%
3,CCCCCCCCCCCCN(CCCCCCCCCCCC)c1nc(NCCCN2CCN(C)CC2)nc(SCCCCCCCCC)n1 [D9S9^2N12],0.3%
4,CCCCCCCCCCCCN(CCCCCCCCCCCC)c1nc(NCCCN2CCN(C)CC2)nc(SCCCCCCCCCC)n1 [D9S10^2N12],0.3%
5,CCCCCCCCCCCCN(CCCCCCCCCCCC)c1nc(NCCCN2CCN(C)CC2)nc(SCCCCCCCCCCC)n1 [D9S11^2N12],0.0%
6,CCCCCCCCCCCCSc1nc(NCCCN2CCN(C)CC2)nc(N(CCCCCCCCCCCC)CCCCCCCCCCCC)n1 [D9S12^2N12],0.8%
7,CCCCCCCCCCCCCCSc1nc(NCCCN2CCN(C)CC2)nc(N(CCCCCCCCCCCC)CCCCCCCCCCCC)n1 [D9S14^2N12],0.1%
8,CCCCCCCCCCCCCCCSc1nc(NCCCN2CCN(C)CC2)nc(N(CCCCCCCCCCCC)CCCCCCCCCCCC)n1 [D9S15^2N12],0.4%
9,CCCCCCCCCCCCCCCCSc1nc(NCCCN2CCN(C)CC2)nc(N(CCCCCCCCCCCC)CCCCCCCCCCCC)n1 [D9S16^2N12],2.7%
10,CCCCCCCCCCCCCCCCCCSc1nc(NCCCN2CCN(C)CC2)nc(N(CCCCCCCCCCCC)CCCCCCCCCCCC)n1 [D9S18^2N12],0.0%
11,CCCCCCCCCCCCN(CCCCCCCCCCCC)c1nc(NCC2CCN(C)CC2)nc(SCCCCCC)n1 [D10S6^2N12],0.1%
12,CCCCCCCCCCCCN(CCCCCCCCCCCC)c1nc(NCC2CCN(C)CC2)nc(SCCCCCCC)n1 [D10S7^2N12],1.4%
13,CCCCCCCCCCCCN(CCCCCCCCCCCC)c1nc(NCC2CCN(C)CC2)nc(SCCCCCCCC)n1 [D10S8^2N12],1.5%
14,CCCCCCCCCCCCN(CCCCCCCCCCCC)c1nc(NCC2CCN(C)CC2)nc(SCCCCCCCCC)n1 [D10S9^2N12],7.7%
15,CCCCCCCCCCCCN(CCCCCCCCCCCC)c1nc(NCC2CCN(C)CC2)nc(SCCCCCCCCCC)n1 [D10S10^2N12],0.2%
16,CCCCCCCCCCCCN(CCCCCCCCCCCC)c1nc(NCC2CCN(C)CC2)nc(SCCCCCCCCCCC)n1 [D10S11^2N12],0.0%
17,CCCCCCCCCCCCSc1nc(NCC2CCN(C)CC2)nc(N(CCCCCCCCCCCC)CCCCCCCCCCCC)n1 [D10S12^2N12],3.4%
18,CCCCCCCCCCCCCCSc1nc(NCC2CCN(C)CC2)nc(N(CCCCCCCCCCCC)CCCCCCCCCCCC)n1 [D10S14^2N12],0.2%
19,CCCCCCCCCCCCCCCSc1nc(NCC2CCN(C)CC2)nc(N(CCCCCCCCCCCC)CCCCCCCCCCCC)n1 [D10S15^2N12],14.3%
